The target in the assay is T1, Full length human recombinant HDAC6 protein (Homo sapiens, UniProt Q9UBN7).
T1 sequence (Q9UBN7 1-1215): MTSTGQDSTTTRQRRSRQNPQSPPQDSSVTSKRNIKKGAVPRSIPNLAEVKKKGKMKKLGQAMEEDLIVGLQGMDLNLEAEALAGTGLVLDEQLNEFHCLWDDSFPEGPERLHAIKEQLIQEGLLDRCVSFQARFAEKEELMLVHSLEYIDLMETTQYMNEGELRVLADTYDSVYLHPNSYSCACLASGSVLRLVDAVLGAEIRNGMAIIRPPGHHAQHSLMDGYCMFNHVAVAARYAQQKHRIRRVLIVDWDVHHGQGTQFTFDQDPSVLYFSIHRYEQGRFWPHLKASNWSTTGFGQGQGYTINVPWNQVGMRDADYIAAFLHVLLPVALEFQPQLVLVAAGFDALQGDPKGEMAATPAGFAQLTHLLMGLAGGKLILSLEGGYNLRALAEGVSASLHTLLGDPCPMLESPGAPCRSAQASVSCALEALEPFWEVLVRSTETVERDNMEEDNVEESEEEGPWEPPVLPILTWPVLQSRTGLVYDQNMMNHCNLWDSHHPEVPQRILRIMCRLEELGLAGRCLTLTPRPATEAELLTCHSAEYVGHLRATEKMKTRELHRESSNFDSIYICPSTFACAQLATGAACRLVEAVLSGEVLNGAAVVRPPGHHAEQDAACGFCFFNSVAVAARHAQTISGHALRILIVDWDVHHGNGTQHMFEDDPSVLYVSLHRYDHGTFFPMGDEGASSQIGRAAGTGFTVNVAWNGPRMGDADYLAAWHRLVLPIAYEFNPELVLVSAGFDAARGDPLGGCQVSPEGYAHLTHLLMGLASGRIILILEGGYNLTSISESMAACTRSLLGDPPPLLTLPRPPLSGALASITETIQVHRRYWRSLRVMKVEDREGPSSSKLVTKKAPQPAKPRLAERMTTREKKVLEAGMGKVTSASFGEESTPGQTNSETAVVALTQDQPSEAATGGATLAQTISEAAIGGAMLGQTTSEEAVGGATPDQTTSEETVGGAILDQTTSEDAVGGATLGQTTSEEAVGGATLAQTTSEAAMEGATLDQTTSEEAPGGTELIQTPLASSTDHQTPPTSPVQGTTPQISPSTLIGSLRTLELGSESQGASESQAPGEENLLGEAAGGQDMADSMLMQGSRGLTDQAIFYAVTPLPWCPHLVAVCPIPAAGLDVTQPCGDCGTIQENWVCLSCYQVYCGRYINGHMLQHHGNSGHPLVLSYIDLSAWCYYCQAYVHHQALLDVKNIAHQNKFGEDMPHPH
Description: In vitro histone deacetylase assay: enzymatic HDAC6 electrophoretic mobility shift assay. Type of assay: biochemical. Particulars: 1 nM enzyme, 2 μM peptide substrate RHKK(Ac)-NH2, 25° C., 12 concentrations; read-out: Inhibitory Concentration (IC50) Values against HDAC6, Activity Range. Background: A gel shift assay detects complexes by their altered migration in electrophoresis.

Each structure is given as a SMILES string. pIC50: −log10 of the molar value.

Take `O=C(NO)c1ccc2c(c1)OCCN(C(=O)C(Oc1ccccc1)c1ccccc1)C2` (centres unmarked) [N-hydroxy-4-(2-phenoxy-2-phenylacetyl)-2,3,4,5-tetrahydrobenzo[f][1,4]oxazepine-8-carboxamide]: the pIC50 is 6.30 to 7.00.
As for `CCC(Oc1ccccc1)C(=O)N1CCOc2cc(C(=O)NO)ccc2C1` (centres unmarked) [N-hydroxy-4-(2-phenoxybutanoyl)-2,3,4,5-tetrahydrobenzo[f][1,4]oxazepine-8-carboxamide], the pIC50 is 6.30 to 7.00.
The same measure for `CC(Oc1ccccc1)C(=O)N1CCOc2cc(C(=O)NO)ccc2C1` (centres unmarked) [N-hydroxy-4-(2-phenoxypropanoyl)-2,3,4,5-tetrahydrobenzo[f][1,4]oxazepine-8-carboxamide]: 6.30 to 7.00; for `O=C(NO)c1ccc2c(c1)OCCN(C(=O)C(c1ccccc1)n1cccn1)C2` (centres unmarked) [N-hydroxy-4-(2-phenyl-2-(1H-pyrazol-1-yl)acetyl)-2,3,4,5-tetrahydrobenzo[f][1,4]oxazepine-8-carboxamide]: 6.30 to 7.00.
The same measure for `O=C(NO)c1ccc2c(c1)OCCN(C(=O)C(c1ccccc1)n1cnnn1)C2` (centres unmarked) [N-hydroxy-4-(2-phenyl-2-(1H-tetrazol-1-yl)acetyl)-2,3,4,5-tetrahydrobenzo[f][1,4]oxazepine-8-carboxamide]: 6.30 to 7.00; for `O=C(NO)c1ccc2c(c1)OCCN(C(=O)C(OCC(F)(F)F)c1ccccc1)C2` (centres unmarked) [N-hydroxy-4-(2-phenyl-2-(2,2,2-trifluoroethoxy)acetyl)-2,3,4,5-tetrahydrobenzo[f][1,4]oxazepine-8-carboxamide]: 6.30 to 7.00.
The value for `O=C(NO)c1ccc2c(c1)OCCN(C(=O)C(OC1CCOCC1)c1ccccc1)C2` (centres unmarked) [N-hydroxy-4-(2-phenyl-2-((tetrahydro-2H-pyran-4-yl)oxy)acetyl)-2,3,4,5-tetrahydrobenzo[f][1,4]oxazepine-8-carboxamide] was < 6.30.
Regarding `CCC(C(=O)N1CCOc2cc(C(=O)NO)ccc2C1)c1ccccc1` (centres unmarked) [N-hydroxy-4-(2-phenylbutanoyl)-2,3,4,5-tetrahydrobenzo[f][1,4]oxazepine-8-carboxamide], the pIC50 was 6.30 to 7.00.
The value for `O=C(NO)c1ccc2c(c1)OCCN(C(=O)C1CC1c1ccccc1)C2` (centres unmarked) [N-hydroxy-4-(2-phenylcyclopropane-1-carbonyl)-2,3,4,5-tetrahydrobenzo[f][1,4]oxazepine-8-carboxamide] was ≥ 7.00; that for `O=C(NO)c1ccc2c(c1)OCCN(C(=O)C1Oc3ccccc3C13CCNCC3)C2` (centres unmarked) [N-hydroxy-4-(2H-spiro[benzofuran-3,4′-piperidine]-2-carbonyl)-2,3,4,5-tetrahydrobenzo[f][1,4]oxazepine-8-carboxamide] was 6.30 to 7.00.
In the case of `COc1ccc(CC(C(=O)N2CCOc3cc(C(=O)NO)ccc3C2)c2ccccc2)cc1` (centres unmarked) [N-hydroxy-4-(3-(4-methoxyphenyl)-2-phenylpropanoyl)-2,3,4,5-tetrahydrobenzo[f][1,4]oxazepine-8-carboxamide], the pIC50 is 6.30 to 7.00.
The same measure for `CCCNc1c(C(=O)N2CCOc3cc(C(=O)NO)ccc3C2)sc2ccccc12` [N-hydroxy-4-(3-(propylamino)benzo[b]thiophene-2-carbonyl)-2,3,4,5-tetrahydrobenzo[f][1,4]oxazepine-8-carboxamide]: ≥ 7.00; for `O=C(NO)c1ccc2c(c1)OCCN(C(=O)C1CCC3(CCNCC3)CC1)C2` [N-hydroxy-4-(3-azaspiro[5.5]undecane-9-carbonyl)-2,3,4,5-tetrahydrobenzo[f][1,4]oxazepine-8-carboxamide]: ≥ 7.00.
The value for `O=C(NO)c1ccc2c(c1)OCCN(C(=O)CCO)C2` [N-hydroxy-4-(3-hydroxypropanoyl)-2,3,4,5-tetrahydrobenzo[f][1,4]oxazepine-8-carboxamide] was < 6.30; that for `COCC(C)(C)C(=O)N1CCOc2cc(C(=O)NO)ccc2C1` [N-hydroxy-4-(3-methoxy-2,2-dimethylpropanoyl)-2,3,4,5-tetrahydrobenzo[f][1,4]oxazepine-8-carboxamide] was ≥ 7.00; that for `COc1cccc(C(=O)N2CCOc3cc(C(=O)NO)ccc3C2)c1` [N-hydroxy-4-(3-methoxybenzoyl)-2,3,4,5-tetrahydrobenzo[f][1,4]oxazepine-8-carboxamide] was 6.30 to 7.00.
The same measure for `CC1(C(=O)N2CCOc3cc(C(=O)NO)ccc3C2)COC1` [N-hydroxy-4-(3-methyloxetane-3-carbonyl)-2,3,4,5-tetrahydrobenzo[f][1,4]oxazepine-8-carboxamide]: ≥ 7.00; for `CC(CC(=O)N1CCOc2cc(C(=O)NO)ccc2C1)c1ccccc1` (centres unmarked) [N-hydroxy-4-(3-phenylbutanoyl)-2,3,4,5-tetrahydrobenzo[f][1,4]oxazepine-8-carboxamide]: 6.30 to 7.00.
Turning to `O=C(NO)c1ccc2c(c1)OCCN(C(=O)CCc1ccccc1)C2` [N-hydroxy-4-(3-phenylpropanoyl)-2,3,4,5-tetrahydrobenzo[f][1,4]oxazepine-8-carboxamide], the pIC50 is ≥ 7.00.
The value for `O=C(NO)c1ccc2c(c1)OCCN(C(=O)C1OC3(CCNCC3)c3ccccc31)C2` (centres unmarked) [N-hydroxy-4-(3H-spiro[isobenzofuran-1,4′-piperidine]-3-carbonyl)-2,3,4,5-tetrahydrobenzo[f][1,4]oxazepine-8-carboxamide] was 6.30 to 7.00; that for `O=C(NO)c1ccc2c(c1)OCCN(C(=O)CCC(F)(F)F)C2` [N-hydroxy-4-(4,4,4-trifluorobutanoyl)-2,3,4,5-tetrahydrobenzo[f][1,4]oxazepine-8-carboxamide] was 6.30 to 7.00; that for `O=C(NO)c1ccc2c(c1)OCCN(C(=O)c1ccc(C(F)(F)F)cc1)C2` [N-hydroxy-4-(4-(trifluoromethyl)benzoyl)-2,3,4,5-tetrahydrobenzo[f][1,4]oxazepine-8-carboxamide] was 6.30 to 7.00.
The value for `COCCC(C(=O)N1CCOc2cc(C(=O)NO)ccc2C1)c1ccccn1` (centres unmarked) [N-hydroxy-4-(4-methoxy-2-(pyridin-2-yl)butanoyl)-2,3,4,5-tetrahydrobenzo[f][1,4]oxazepine-8-carboxamide] was 6.30 to 7.00; that for `COc1ccc(C(=O)N2CCOc3ccc(C(=O)NO)cc3C2)cc1` [N-hydroxy-4-(4-methoxybenzoyl)-2,3,4,5-tetrahydrobenzo[f][1,4]oxazepine-7-carboxamide] was < 6.30; that for `COc1ccc(C(=O)N2CCOc3cc(C(=O)NO)ccc3C2)cc1` [N-hydroxy-4-(4-methoxybenzoyl)-2,3,4,5-tetrahydrobenzo[f][1,4]oxazepine-8-carboxamide] was ≥ 7.00.
The same measure for `COc1ccc(C(=O)N2CC(=O)Nc3ccc(C(=O)NO)cc3C2)cc1` [N-hydroxy-4-(4-methoxybenzoyl)-2-oxo-2,3,4,5-tetrahydro-1H-benzo[e][1,4]diazepine-7-carboxamide]: < 6.30; for `COC1CCC(C(=O)N2CCOc3cc(C(=O)NO)ccc3C2)CC1` (centres unmarked) [N-hydroxy-4-(4-methoxycyclohexane-1-carbonyl)-2,3,4,5-tetrahydrobenzo[f][1,4]oxazepine-8-carboxamide]: ≥ 7.00.
On to `CC1(C(=O)N2CCOc3cc(C(=O)NO)ccc3C2)CCOCC1` [N-hydroxy-4-(4-methyltetrahydro-2H-pyran-4-carbonyl)-2,3,4,5-tetrahydrobenzo[f][1,4]oxazepine-8-carboxamide], for which the pIC50 is ≥ 7.00.
The same measure for `O=C(NO)c1ccc2c(c1)OCCN(C(=O)c1ccc(N3CCOCC3)cc1)C2` [N-hydroxy-4-(4-morpholinobenzoyl)-2,3,4,5-tetrahydrobenzo[f][1,4]oxazepine-8-carboxamide]: 6.30 to 7.00; for `O=C(NO)c1ccc2c(c1)OCCN(C(=O)c1ccc(Oc3ccccc3)cc1)C2` [N-hydroxy-4-(4-phenoxybenzoyl)-2,3,4,5-tetrahydrobenzo[f][1,4]oxazepine-8-carboxamide]: ≥ 7.00; for `O=C(NO)c1ccc2c(c1)OCCN(C(=O)C1(c3ccccc3)CCOCC1)C2` [N-hydroxy-4-(4-phenyltetrahydro-2H-pyran-4-carbonyl)-2,3,4,5-tetrahydrobenzo[f][1,4]oxazepine-8-carboxamide]: 6.30 to 7.00.
In the case of `O=C(NO)c1ccc2c(c1)OCCN(C(=O)C1CC13CCNC3)C2` (centres unmarked) [N-hydroxy-4-(5-azaspiro[2.4]heptane-1-carbonyl)-2,3,4,5-tetrahydrobenzo[f][1,4]oxazepine-8-carboxamide], the pIC50 is < 6.30.
